Each structure is given as a SMILES string.

The data set deals with Pimephales promelas. Kind of data set: 96 h LC50 (-log10 mol/L); higher = more toxic.
Take `O=[N+]([O-])c1ccc(/C=C/c2cccc(CO)n2)o1`: the “96 h LC50 (-log10 mol/L)” value stood at 5.48. Consider `Nc1ccc(-c2ccc(N)c(Cl)c2)cc1Cl`, for which the “96 h LC50 (-log10 mol/L)” value amounted to 5.08. For the molecule `OCCN(CCO)c1ccccc1`, the “96 h LC50 (-log10 mol/L)” value was determined as 2.39. On to `O=CN(c1ccccc1)c1ccccc1`, for which the “96 h LC50 (-log10 mol/L)” value came to 3.81. Take `Cc1ccc(S(=O)(=O)n2ccnc2)cc1`: the “96 h LC50 (-log10 mol/L)” value came out at 3.73. With `Cc1ccc(N=C=O)cc1N=C=O`, the “96 h LC50 (-log10 mol/L)” value is 3.02.

As for `Cc1c([N+](=O)[O-])ccc([N+](=O)[O-])c1N`, the “96 h LC50 (-log10 mol/L)” value came to 5.37. Take `CCCCOc1ccccc1`: the “96 h LC50 (-log10 mol/L)” value is 4.42.

Regarding `NC(=O)c1cccc(Br)c1`, the “96 h LC50 (-log10 mol/L)” value came to 3.33. Regarding `NNC(N)=S`, the “96 h LC50 (-log10 mol/L)” value stood at 3.64. For `O=C1C2CC=CCC2C(=O)N1SC(Cl)(Cl)Cl` (stereo not given), the “96 h LC50 (-log10 mol/L)” value worked out at 6.35. As for `Cc1ccc([N+](=O)[O-])c(N)c1`, the “96 h LC50 (-log10 mol/L)” value turned out to be 3.79. Turning to `Cc1cccnc1`, the “96 h LC50 (-log10 mol/L)” value was determined as 2.81. For `C=C(CCl)CCl`, the “96 h LC50 (-log10 mol/L)” value is 5.82. As for `CCN(CC)c1ccc(C=O)c(O)c1`, the “96 h LC50 (-log10 mol/L)” value is 4.56.

For `Cc1cc2cccc(C)c2cc1C`, the “96 h LC50 (-log10 mol/L)” value was determined as 4.42. On to `CC(C)=CCC/C(C)=C/CO`, for which the “96 h LC50 (-log10 mol/L)” value was found to be 4.59.

For the molecule `CCOC(=O)CC(S)C(=O)OCC` (stereo not given), the “96 h LC50 (-log10 mol/L)” value was found to be 3.77.

With `C#CCC(C)O` (stereo not given), the “96 h LC50 (-log10 mol/L)” value amounted to 3.38. As to `CC12CCC(CC1)C(C)(C)O2`, the “96 h LC50 (-log10 mol/L)” value was 3.18. Consider `C#CC(O)CCCCC` (stereo not given), for which the “96 h LC50 (-log10 mol/L)” value worked out at 5.49. As for `N#Cc1ccccc1C(F)(F)F`, the “96 h LC50 (-log10 mol/L)” value was 3.61.

For `CC1(C)[C@@H]2CC[C@@]1(C)C(=O)C2`, the “96 h LC50 (-log10 mol/L)” value was 3.14. On to `CCN(CC)C1CCCCC1`, for which the “96 h LC50 (-log10 mol/L)” value turned out to be 3.86. On to `OCCOc1ccccc1`, for which the “96 h LC50 (-log10 mol/L)” value was 2.6. For `O=C(O)[C@@H]1[C@H](C(=O)O)[C@H]2CC[C@@H]1O2`, the “96 h LC50 (-log10 mol/L)” value turned out to be 4.08. On to `O=CC=O`, for which the “96 h LC50 (-log10 mol/L)” value was determined as 2.43. As to `CC(C)(c1cc(Br)c(O)c(Br)c1)c1cc(Br)c(O)c(Br)c1`, the “96 h LC50 (-log10 mol/L)” value came to 5.83.

Consider `N#Cc1cccc(C(F)(F)F)c1`, for which the “96 h LC50 (-log10 mol/L)” value is 3.56.

`CC(=O)O`: the “96 h LC50 (-log10 mol/L)” value is 2.86. `CCN(CC)CCCC(C)=O`: the “96 h LC50 (-log10 mol/L)” value was found to be 2.67. As to `O=C1c2ccccc2C(=O)N1SC(Cl)(Cl)Cl`, the “96 h LC50 (-log10 mol/L)” value was determined as 6.21. For the molecule `Fc1ccc(Oc2ccc(F)cc2)cc1`, the “96 h LC50 (-log10 mol/L)” value was found to be 5.26.

Take `CCOC(=O)C(F)(F)F`: the “96 h LC50 (-log10 mol/L)” value is 1.15.

For the molecule `CC(C)(C)c1ccc(Oc2cccc(C=O)c2)cc1`, the “96 h LC50 (-log10 mol/L)” value turned out to be 5.84.

As for `CCCCN(C=O)CCCC`, the “96 h LC50 (-log10 mol/L)” value turned out to be 3.25. Regarding `Nc1ccccc1C(=O)c1ccc(Cl)cc1`, the “96 h LC50 (-log10 mol/L)” value was 5.04. In the case of `CCOC(=O)[C@H](O)[C@@H](O)C(=O)OCC` it was 2.5; in that of `CCCSSCCC`, 4.76; in that of `CCCCOCCOC(=O)C(C)Oc1cc(Cl)c(Cl)cc1Cl` (stereo not given), 5.57. With `c1ccc2c(c1)CCO2`, the “96 h LC50 (-log10 mol/L)” value stood at 3.17. Consider `CC(N)CN` (stereo not given), for which the “96 h LC50 (-log10 mol/L)” value is 1.82. Take `CC(=O)C(C)CN(C)C` (stereo not given): the “96 h LC50 (-log10 mol/L)” value was determined as 4.18. `C#CCN(CC#C)CC#C`: the “96 h LC50 (-log10 mol/L)” value was 2.65.

Take `Cc1cccc([N+](=O)[O-])c1N`: the “96 h LC50 (-log10 mol/L)” value was found to be 3.8. In the case of `CCOP(=S)(OCC)SCSP(=S)(OCC)OCC` it was 5.73; in that of `Clc1ccc(C(c2ccc(Cl)cc2)C(Cl)Cl)cc1`, 4.86.

Regarding `COc1ccc(OC)c(C(=O)CBr)c1`, the “96 h LC50 (-log10 mol/L)” value turned out to be 6.65. As for `CC(Cl)(Cl)C(=O)O`, the “96 h LC50 (-log10 mol/L)” value was 2.69. `C=C(C)C1CC=C(C)CC1` (stereo not given): the “96 h LC50 (-log10 mol/L)” value was 2.15.

For the origin of these results see EPA's aquatic toxicity sets.
